# US11590116B2 (THERAVANCE BIOPHARMA R&D IP, LLC, priority 2019, dated 2023)
# What was measured:
# [1] = target: T1, recombinant human ALK5 (TGF-βR1) protein (Homo sapiens, UniProt P36897); experiment: Biochemical ALK5 (TGF-βR1) assay to measure pKi (LANCE Ultra ULight kinase assay); conditions: apparent pKi from pIC50 by Cheng-Prusoff, read-out: ALK5 pKi (converted)
# T1 construct: purchased Life Technologies PR9075A
# T1 sequence (P36897 34-503): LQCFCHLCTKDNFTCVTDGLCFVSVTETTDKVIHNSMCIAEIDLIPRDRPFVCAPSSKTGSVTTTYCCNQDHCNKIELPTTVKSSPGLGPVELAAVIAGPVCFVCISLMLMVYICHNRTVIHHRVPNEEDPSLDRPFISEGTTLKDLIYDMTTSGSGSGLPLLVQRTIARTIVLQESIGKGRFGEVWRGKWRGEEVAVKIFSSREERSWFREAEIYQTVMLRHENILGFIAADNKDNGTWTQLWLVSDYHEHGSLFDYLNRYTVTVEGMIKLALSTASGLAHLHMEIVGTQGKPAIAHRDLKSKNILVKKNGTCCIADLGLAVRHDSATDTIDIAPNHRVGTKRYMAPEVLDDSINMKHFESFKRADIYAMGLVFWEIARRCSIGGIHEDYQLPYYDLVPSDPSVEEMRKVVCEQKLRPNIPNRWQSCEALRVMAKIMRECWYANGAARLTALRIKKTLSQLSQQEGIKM
# Outline: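 Compounds (10 μM to 25 pM) were preincubated 60 min at room temperature with enzyme, then reactions were started with ATP (125 μM stock, 5× final) and run 60 min at 37 °C. EDTA-containing Eu-anti-phospho-Topo IIα (Thr1342) antibody stopped the reaction; TR-FRET read at 665 nm. pIC50 from 4-parameter fit, converted to pKi via Cheng-Prusoff.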
# [2] = test system: TGF-β-stimulated SMAD3 phosphorylation in BEAS-2B cells; experiment: Cellular ALK5 potency assay, inhibition of TGF-β stimulated pSMAD3 formation in BEAS-2B cells; format: cell-based; conditions: Homo sapiens; inhibition of TGF-β stimulated pSMAD3 formation, BEAS-2B cells; read-out: BEAS2B pIC50 (converted)
# Outline: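 BEAS-2B human lung epithelial cells pre-treated 1 h at 37° C with compound in HBSS/25 mM HEPES/1% BSA, then stimulated 30 min with 10 ng/mL TGF-β (final). Lysates assayed for pSMAD3 by AlphaLISA; pIC50 from dose-dependent change versus stimulated untreated cells.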
Ki [1],Compound,IC50 [2]
0.398 to 3.16 nM,"Cc1cccc(-c2n[nH]cc2-c2ccc3ncc(CNCCN4CCOCC4)cc3n2)n1 [Compound 633, N-[[6-[3-(6-methyl-2-pyridyl)-1H-pyrazol-4-yl]-1,5-naphthyridin-3-yl]methyl]-2-morpholino-ethanamine]",25.1 to 158 nM
0.0398 to 0.316 nM,"Cc1cccc(-c2n[nH]cc2-c2ccc3ncc(C4=CCC(N(C)C)CC4)cc3n2)n1 (centres unmarked) [Compound 685, N,N-dimethyl-4-[6-[3-(6-methyl-2-pyridyl)-1H-pyrazol-4-yl]-1,5-naphthyridin-3-yl]cyclohex-3-en-1-amine]",25.1 to 158 nM
< 0.0316 nM,"CC(=O)N[C@H]1CC=C(c2cnc3ccc(-c4nc[nH]c4-c4cccc(C)n4)cc3c2)CC1 [Compound 691, N-[(1R)-4-[6-[5-(6-methyl-2-pyridyl)-1H-imidazol-4-yl]-3-quinolyl]cyclohex-3-en-1-yl]acetamide]",< 20 nM
0.0398 to 0.316 nM,"Cc1cccc(-c2[nH]cnc2-c2ccc3ncc(-c4csc(C(=O)OCCN5CCNCC5)n4)cc3c2)n1 [Compound 1096, 2-piperazin-1-ylethyl 4-[6-[5-(6-methyl-2-pyridyl)-1H-imidazol-4-yl]-3-quinolyl]thiazole-2-carboxylate]",25.1 to 158 nM
0.0398 to 0.316 nM,"Cc1cccc(-c2[nH]cnc2-c2ccc3ncc(-c4nc(C(=O)O[C@@H]5CCN(C)C5)cs4)cc3c2)n1 [Compound 744, [(3R)-1-methylpyrrolidin-3-yl] 2-[6-[5-(6-methyl-2-pyridyl)-1H-imidazol-4-yl]-3-quinolyl]thiazole-4-carboxylate]",25.1 to 158 nM
< 0.0316 nM,"Cc1nc(-c2n[nH]cc2-c2ccc3ncc(-c4cn5c(n4)NCC5)cc3n2)ccc1F [Compound 658, 7-(2,3-dihydro-1H-imidazo[1,2-a]imidazol-6-yl)-2-[3-(5-fluoro-6-methyl-2-pyridyl)-1H-pyrazol-4-yl]-1,5-naphthyridine]",< 20 nM
0.398 to 3.16 nM,"Cc1cccc(-c2n[nH]cc2-c2ccc3nccc(NC(=O)CCN4CCN(C(C)C)CC4)c3n2)n1 [Compound 843, 3-(4-isopropylpiperazin-1-yl)-N-[6-[3-(6-methyl-2-pyridyl)-1H-pyrazol-4-yl]-1,5-naphthyridin-4-yl]propanamide]",25.1 to 158 nM
0.398 to 3.16 nM,"Cc1cccc(-c2n[nH]cc2-c2ccc3ncc(-c4cn(-c5ccccn5)nn4)cc3n2)n1 [Compound 680, 2-[3-(6-methyl-2-pyridyl)-1H-pyrazol-4-yl]-7-[1-(2-pyridyl)triazol-4-yl]-1,5-naphthyridine]",200 to 1260 nM
0.0398 to 0.316 nM,"Cc1cccc(-c2[nH]ncc2-c2ccc3ncc(C(=O)OCCN4CCN5CCCC5C4)cc3c2)n1 (centres unmarked) [Compound 1234, 2-(3,4,6,7,8,8a-hexahydro-1H-pyrrolo[1,2-a]pyrazin-2-yl)ethyl 6-[5-(6-methyl-2-pyridyl)-1H-pyrazol-4-yl]quinoline-3-carboxylate]",25.1 to 158 nM
0.0398 to 0.316 nM,"Cc1cccc(-c2[nH]cnc2-c2ccc3ncc(-c4nc(C(=O)O)cs4)cc3c2)n1 [Compound 797, 2-(6-(5-(6-methylpyridin-2-yl)-1H-imidazol-4-yl)quinolin-3-yl)thiazole-4-carboxylic acid]",1580 to 10000 nM

# Second part, the compound before the results:
Compound,Ki [1],IC50 [2]
"COC(=O)[C@H]1CN(c2cnc3ccc(-c4c[nH]nc4-c4cccc(C)n4)nc3c2)CCN1 [Compound 442, methyl (2R)-4-[6-[3-(6-methyl-2-pyridyl)-1H-pyrazol-4-yl]-1,5-naphthyridin-3-yl]piperazine-2-carboxylate]",0.0398 to 0.316 nM,25.1 to 158 nM
"Cc1nc(-c2n[nH]cc2-c2ccc3ncc(-c4cc5n(n4)CCNC5)cc3n2)ccc1F [Compound 391, 2-[3-(5-fluoro-6-methyl-2-pyridyl)-1H-pyrazol-4-yl]-7-(4,5,6,7-tetrahydropyrazolo[1,5-a]pyrazin-2-yl)-1,5-naphthyridine]",< 0.0316 nM,< 20 nM
"Cc1cccc(-c2[nH]cnc2-c2ccc3ncc(NC(=O)C4CCNC4)cc3c2)n1 (centres unmarked) [Compound 618, N-[6-[5-(6-methyl-2-pyridyl)-1H-imidazol-4-yl]-3-quinolyl]pyrrolidine-3-carboxamide]",0.0398 to 0.316 nM,200 to 1260 nM
"FC(F)c1cccc(-c2n[nH]cc2-c2ccc3ncc(N4CCCNCC4)cc3n2)n1 [Compound 446, 7-(1,4-diazepan-1-yl)-2-[3-[6-(difluoromethyl)-2-pyridyl]-1H-pyrazol-4-yl]-1,5-naphthyridine]",0.0398 to 0.316 nM,25.1 to 158 nM
"Cc1nc(-c2nc3ccccn3c2-c2ccc3ncc(N4CCC(N(C)C)C4)cc3n2)ccc1F (racemic) [Compound 347, rac-(3S)-1-[6-[2-(5-fluoro-6-methyl-2-pyridyl)imidazo[1,2-a]pyridin-3-yl]-1,5-naphthyridin-3-yl]-N,N-dimethyl-pyrrolidin-3-amine]",0.0398 to 0.316 nM,25.1 to 158 nM
"CNCCn1cc(-c2cnc3ccc(-c4c(-c5cccc(C)n5)n[nH]c4N)nc3c2)cn1 [Compound 512, 4-[7-[1-[2-(methylamino)ethyl]pyrazol-4-yl]-1,5-naphthyridin-2-yl]-3-(6-methyl-2-pyridyl)-1H-pyrazol-5-amine]",0.0398 to 0.316 nM,200 to 1260 nM
"Cc1cccc(-c2[nH]cnc2-c2ccc3ncc(C4=CCC(C(=O)OC5CCNCC5)CC4)cc3c2)n1 (centres unmarked) [Compound 444, 4-piperidyl 4-[6-[5-(6-methyl-2-pyridyl)-1H-imidazol-4-yl]-3-quinolyl]cyclohex-3-ene-1-carboxylate]",0.0398 to 0.316 nM,25.1 to 158 nM
"Cc1cccc(-c2n[nH]cc2-c2ccc3ncc(N4CCn5nc(C6=CCNC6)nc5C4)cc3n2)n1 [Compound 362, 7-[2-(2,5-dihydro-1H-pyrrol-3-yl)-6,8-dihydro-5H-[1,2,4]triazolo[1,5-a]pyrazin-7-yl]-2-[3-(6-methyl-2-pyridyl)-1H-pyrazol-4-yl]-1,5-naphthyridine]",0.0398 to 0.316 nM,200 to 1260 nM
"Cc1nc(-c2n[nH]cc2-c2ccc3ncc(-c4nnn5c4NCC5)cc3n2)ccc1F [Compound 520, 7-(5,6-dihydro-4H-imidazo[1,2-c]triazol-3-yl)-2-[3-(5-fluoro-6-methyl-2-pyridyl)-1H-pyrazol-4-yl]-1,5-naphthyridine]",< 0.0316 nM,25.1 to 158 nM
"Cc1cccc(-c2[nH]cnc2-c2ccc3ncc(C4=CCN(C)C4)cc3n2)n1 [Compound 309, 7-(1-methyl-2,5-dihydropyrrol-3-yl)-2-[5-(6-methyl-2-pyridyl)-1H-imidazol-4-yl]-1,5-naphthyridine]",< 0.0316 nM,25.1 to 158 nM
"Cc1cccc(-c2n[nH]cc2-c2ccc3ncc(NCCN4C(C)CNCC4C)cc3n2)n1 (centres unmarked) [Compound 183, N-[2-(2,6-dimethylpiperazin-1-yl)ethyl]-6-[3-(6-methyl-2-pyridyl)-1H-pyrazol-4-yl]-1,5-naphthyridin-3-amine]",0.0398 to 0.316 nM,200 to 1260 nM
"Cc1cccc(-c2[nH]cnc2-c2ccc3ncc(-c4ccc(C(=O)OCC5CNC5)nc4)cc3c2)n1 [Compound 54, azetidin-3-ylmethyl 5-[6-[5-(6-methyl-2-pyridyl)-1H-imidazol-4-yl]-3-quinolyl]pyridine-2-carboxylate]",0.0398 to 0.316 nM,200 to 1260 nM
